Calls of active or inactive are those of the source. The rule behind the calls is not given here.
What was measured:
[1] = tested on: Plasmodium falciparum; experiment: microbe, parasite or virus in culture; details: K1
Description: Antimalarial activity against Plasmodium falciparum K1

[2] = tested on: Plasmodium falciparum; experiment: microbe, parasite or virus in culture; details: NF54
Description: Antimalarial activity against Plasmodium falciparum NF54

[3] = Metabolic stability in rat liver microsomes assessed as intrinsic clearance per mg protein after 60 mins by LC-MS analysis; type: ADME, Microsome
[4] = Metabolic stability in rat liver microsomes assessed as degradation half life after 60 mins by LC-MS analysis; type: ADME, Microsome
[5] = Metabolic stability in mouse liver microsomes assessed as intrinsic clearance per mg protein after 60 mins by LC-MS analysis; type: ADME, Microsome
[6] = Metabolic stability in human liver microsomes assessed as intrinsic clearance per mg protein after 60 mins by LC-MS analysis; type: ADME, Microsome
[7] = Metabolic stability in mouse liver microsomes assessed as degradation half life after 60 mins by LC-MS analysis; type: ADME, Microsome
[8] = Metabolic stability in human liver microsomes assessed as degradation half life after 60 mins by LC-MS analysis; type: ADME, Microsome
[9] = Distribution coefficient, log D of the compound at pH 7.4; type: physicochemical; details: octanol/water
[10] = Selectivity index, ratio IC50 for rat L6 cells to IC50 for multidrug-resistant Plasmodium falciparum K1 infected in human red blood cells; type: functional
[11] = tested on: Plasmodium falciparum; experiment: microbe, parasite or virus in culture; details: K1; remark: listed apart in the source
Description: (§1) Antimalarial activity against multidrug-resistant Plasmodium falciparum K1 infected in human red blood cells assessed as 3H-hypoxanthine incorporation after 48 hrs by liquid scintillation counting

[12] = tested on: L6; experiment: Cytotoxicity at rat L6 cells after 72 hrs by microplate alamar blue assay; type: cell-based
[13] = tested on: Plasmodium falciparum; experiment: microbe, parasite or virus in culture; details: FC27/Papua New Guinea
Description: Antimalarial activity against Plasmodium falciparum FC27

[14] = tested on: Plasmodium falciparum; experiment: microbe, parasite or virus in culture; details: W2, 48 h
[15] = tested on: Plasmodium falciparum; experiment: microbe, parasite or virus in culture; details: FCR-3/Gambia
Description: Antimalarial activity against Plasmodium falciparum FCR3

[16] = tested on: Plasmodium falciparum; experiment: microbe, parasite or virus in culture; details: Mad20/Papua New Guinea
Description: Antimalarial activity against Plasmodium falciparum Mad20

[17] = tested on: Plasmodium falciparum; experiment: microbe, parasite or virus in culture; details: HB3
Description: Antimalarial activity against Plasmodium falciparum HB3

[18] = tested on: Plasmodium berghei; experiment: Antimalarial activity against GFP-transfected Plasmodium berghei strain ANKA infected in NMRI mouse assessed as reduction in parasitemia at 50 mg/kg/day, ip administered for 4 consecutive days measured 24 hrs after last treatment by FACS analysis relative to control; type: functional; parameters: scale not given: the % may be the effect or the level left; details: route intraperitoneal
[19] = tested on: Plasmodium berghei; experiment: Antimalarial activity against GFP-transfected Plasmodium berghei strain ANKA infected in NMRI mouse assessed as increase in median survival time at 100 mg/kg/day, po administered for 4 days measured up to 30 days post infection (reference value: 5 to 7 days); type: functional
[20] = tested on: Plasmodium falciparum
Description: as §1

[21] = tested on: Plasmodium berghei; experiment: Antimalarial activity against GFP-transfected Plasmodium berghei strain ANKA infected in NMRI mouse assessed as reduction in parasitemia at 100 mg/kg/day, po administered for 4 consecutive days measured 24 hrs after last treatment by FACS analysis relative to control; type: functional; parameters: scale not given: the % may be the effect or the level left
[22] = tested on: Plasmodium berghei; experiment: Antimalarial activity against GFP-transfected Plasmodium berghei strain ANKA infected in NMRI mouse assessed as increase in median survival time at 50 mg/kg/day, ip administered for 4 days measured up to 30 days post infection (reference value: 5 to 7 days); type: functional; details: route intraperitoneal
[23] = tested on: Plasmodium falciparum; experiment: Ratio IC50 for chloroquine to compound for multidrug-resistant Plasmodium falciparum K1; type: functional
[24] = tested on: Plasmodium berghei; experiment: Antimalarial activity against GFP-transfected Plasmodium berghei strain ANKA infected in NMRI mouse assessed as complete cure from parasite infection at 3 to 50 mg/kg, po administered as multiple dose for 4 days measured 24 hrs after last treatment; type: functional, organism-based
[25] = tested on: Plasmodium berghei; experiment: Antimalarial activity against GFP-transfected Plasmodium berghei strain ANKA infected in NMRI mouse assessed as reduction in parasitemia at 25 mg/kg, po administered as single dose measured on day 4 by FACS analysis; type: functional; parameters: scale not given: the % may be the effect or the level left
[26] = tested on: Plasmodium berghei; experiment: Antimalarial activity against GFP-transfected Plasmodium berghei strain ANKA infected in NMRI mouse assessed as reduction in parasitemia at 25 mg/kg, po administered as single dose measured on day 3 by FACS analysis; type: functional; parameters: scale not given: the % may be the effect or the level left
[27] = tested on: Plasmodium berghei; experiment: Antimalarial activity against GFP-transfected Plasmodium berghei strain ANKA infected in NMRI mouse assessed as reduction in parasitemia at 25 mg/kg, po administered as single dose measured on day 5 by FACS analysis; type: functional; parameters: scale not given: the % may be the effect or the level left
[28] = tested on: Plasmodium berghei; experiment: Antimalarial activity against GFP-transfected Plasmodium berghei strain ANKA infected in NMRI mouse assessed as reduction in parasitemia at 25 mg/kg, po administered as single dose measured on day 2 by FACS analysis; type: functional; parameters: scale not given: the % may be the effect or the level left
[29] = tested on: Plasmodium berghei; experiment: Antimalarial activity against GFP-transfected Plasmodium berghei strain ANKA infected in NMRI mouse assessed as increase in mean survival time at 25 mg/kg, po administered as single dose (reference value: 5 days )
[30] = tested on: Plasmodium falciparum; experiment: Antimalarial activity against Plasmodium falciparum W2; type: functional, organism-based
[31] = tested on: Plasmodium falciparum; experiment: Antimalarial activity against Plasmodium falciparum GHA; type: functional, organism-based
[32] = tested on: Plasmodium berghei; experiment: Antimalarial activity against GFP-transfected Plasmodium berghei strain ANKA infected in NMRI mouse assessed as reduction in parasitemia at 50 mg/kg, po administered as single dose measured on day 5 by FACS analysis; type: functional; parameters: scale not given: the % may be the effect or the level left
[33] = tested on: Plasmodium berghei; experiment: Antimalarial activity against GFP-transfected Plasmodium berghei strain ANKA infected in NMRI mouse assessed as reduction in parasitemia at 50 mg/kg, po administered as single dose measured on day 4 by FACS analysis; type: functional; parameters: scale not given: the % may be the effect or the level left
[34] = tested on: Plasmodium berghei; experiment: Antimalarial activity against GFP-transfected Plasmodium berghei strain ANKA infected in NMRI mouse assessed as reduction in parasitemia at 50 mg/kg, po administered as single dose measured on day 2 by FACS analysis; type: functional; parameters: scale not given: the % may be the effect or the level left
[35] = tested on: Plasmodium berghei; experiment: Antimalarial activity against GFP-transfected Plasmodium berghei strain ANKA infected in NMRI mouse assessed as increase in mean survival time at 50 mg/kg, po administered as single dose (reference value: 5 days )
[36] = tested on: Plasmodium berghei; experiment: Antimalarial activity against GFP-transfected Plasmodium berghei strain ANKA infected in NMRI mouse assessed as reduction in parasitemia at 50 mg/kg, po administered as single dose measured on day 3 by FACS analysis; type: functional; parameters: scale not given: the % may be the effect or the level left

SMILES: CCCc1cc(N2CCN(Cc3ccc(F)cc3)CC2)n2c(nc3ccccc32)c1C#N
- IC50 [1]: 23 nM
- IC50 [2]: 53 nM

SMILES: Cl.N#Cc1c(-c2ccc(C(F)(F)F)cc2)cc(NCCN2CCOCC2)n2c1nc1ccccc12
- microsomal CLint [3]: 108 µL/min/mg
- half-life [4]: 16 min
- microsomal CLint [5]: 65.2 µL/min/mg
- microsomal CLint [6]: 109 µL/min/mg
- half-life [7]: 26.6 min
- half-life [8]: 15.9 min

SMILES: CCNCCNc1cc(-c2ccc(C(F)(F)F)cc2)c(C#N)c2nc3ccccc3n12 [listing 1 of 2 here]
- IC50 [1]: 116 nM
- logD [9]: 2.01
- Ratio IC50 [10]: 20.5
- IC50 [2]: 110 nM
- IC50 [11]: 120 nM
- IC50 ([12]; Rattus norvegicus, L6, 72 h): 2460 nM
- IC50 [13]: 110 nM
- IC50 [14]: 123 nM
- IC50 [15]: 154 nM
- IC50 [16]: 106 nM
- IC50 [17]: 90 nM

SMILES: CN(C)CCNc1cc(-c2ccc(C(F)(F)F)cc2)c(C#N)c2nc3ccccc3n12.CS(=O)(=O)O
- Activity [18]: 94.1%
- MSD [19]: 13.7 days
- IC50 [20]: 140 nM
- IC50 ([12]; l6): > 175000 nM
- Activity [21]: 96.8%
- MSD [22]: 11 days

SMILES: OC(c1cc(C(F)(F)F)nc2c(C(F)(F)F)cccc12)C1CCCCN1 (configuration not stated) [MEFLOQUINE]
- IC50 [2]: 13 nM
- IC50 [13]: < 40 nM
- IC50 [16]: 13 nM

SMILES: N#Cc1c(-c2ccccc2)cc(NCCN)n2c1nc1ccccc12
- logD [9]: 0.83
- Ratio IC50 [10]: 4.2
- Ratio IC50 [23]: 22
- IC50 [11]: 4480 nM
- IC50 ([12]; Rattus norvegicus, L6, 72 h): 18900 nM

SMILES: CCN(CC)CCNc1cc(-c2ccc(C(F)(F)F)cc2)c(C#N)c2nc3ccccc3n12.CS(=O)(=O)O
- Activity [18]: 95.2%
- MSD [19]: 11 days
- IC50 [20]: 90 nM
- IC50 ([12]; l6): 124000 nM
- Activity [21]: 97.4%
- MSD [22]: 11 days

SMILES: CCN(CC)CCCNc1cc(-c2ccc(C(F)(F)F)cc2)c(C#N)c2nc3ccccc3n12.Cl
- Activity [18]: 72.6%
- MSD [19]: 11 days
- IC50 [20]: 160 nM
- IC50 ([12]; l6): 2230 nM
- Activity [21]: 93.4%
- MSD [22]: 9 days

SMILES: CCNCCNc1cc(-c2ccc(C(F)(F)F)cc2)c(C#N)c2nc3ccccc3n12 [listing 2 of 2 here]
- Activity [24]: inactive

SMILES: Cl.N#Cc1c(-c2ccc(C(F)(F)F)cc2)cc(NCCCN2CCOCC2)n2c1nc1ccccc12
- microsomal CLint [3]: 234 µL/min/mg
- half-life [4]: 7.4 min
- microsomal CLint [5]: 87 µL/min/mg
- microsomal CLint [6]: 166 µL/min/mg
- half-life [7]: 19.9 min
- half-life [8]: 10.4 min

SMILES: Cl.N#Cc1c(-c2ccc(C(F)(F)F)cc2)cc(NCCN2CCCCC2)n2c1nc1ccccc12
- microsomal CLint [3]: 27 µL/min/mg
- Activity [25]: 38.72%
- half-life [4]: 64.2 min
- Activity [26]: 28.07%
- microsomal CLint [5]: 29.1 µL/min/mg
- Activity [27]: 46.41%
- microsomal CLint [6]: 45.8 µL/min/mg
- half-life [7]: 59.5 min
- Activity [28]: 28.44%
- MSD [29]: 12.7 days
- half-life [8]: 37.9 min

SMILES: CCc1nc(N)nc(N)c1-c1ccc(Cl)cc1 [PYRIMETHAMINE]
- IC50 [1]: 9900 nM
- IC50 [2]: 19 nM
- IC50 [13]: < 60 nM
- IC50 [14]: 29500 nM
- IC50 [15]: 12 nM
- IC50 [16]: < 60 nM
- IC50 [17]: 1150 nM

SMILES: Cc1cc(N2CCN(Cc3ccccc3)CC2)n2c(nc3ccccc32)c1C#N
- IC50 [1]: 50 nM
- IC50 [2]: 52 nM

SMILES: C[C@@H]1CC[C@H]2[C@@H](C)C(=O)O[C@@H]3O[C@@]4(C)CC[C@@H]1[C@]32OO4 [ARTEMISININ]
- IC50 [11]: 6 nM
- IC50 [15]: 5 nM
- IC50 [16]: 8 nM
- IC50 [17]: 3 nM

SMILES: CCN(CC)CCNc1cc(-c2ccc(C(F)(F)F)cc2)c(C#N)c2nc3ccccc3n12
- IC50 [1]: 47 nM
- logD [9]: 2.94
- Ratio IC50 [10]: 612
- Ratio IC50 [23]: 3.5
- IC50 [2]: 110 nM
- IC50 [11]: 47 nM
- IC50 ([12]; l6): 28800 nM
- IC50 [13]: 175 nM
- IC50 [14]: 84 nM
- IC50 [15]: 137 nM
- IC50 [16]: 104 nM
- IC50 [17]: 60 nM

SMILES: N#Cc1c(-c2ccccc2)cc(N2CCNCC2)n2c1nc1ccccc12
- IC50 [1]: 170 nM
- IC50 [30]: 170 nM
- IC50 [31]: 170 nM

SMILES: Cl.N#Cc1c(-c2ccc(C(F)(F)F)cc2)cc(NCCN2CCCC2)n2c1nc1ccccc12
- microsomal CLint [3]: 25.8 µL/min/mg
- Activity [32]: 88.53%
- Activity [25]: 63.73%
- half-life [4]: 67.2 min
- Activity [26]: 43.2%
- microsomal CLint [5]: 25.6 µL/min/mg
- Activity [33]: 73.01%
- Activity [27]: 63.72%
- microsomal CLint [6]: 88.4 µL/min/mg
- half-life [7]: 67.6 min
- Activity [34]: 14.04%
- MSD [35]: 5 days
- Activity [28]: 14.75%
- MSD [29]: 7.7 days
- half-life [8]: 19.6 min
- Activity [36]: 47.92%
